{
  "source": "PubChem BioAssay AID2060890",
  "about": "(Molecular Pharmacology Branch, DTP, NCI, 2025)",
  "system": "LG0703-F948-PDC complex spheroid viability",
  "assay": "Anticancer human tumor LG0703-F948-PDC patient-derived lung adenocarcinoma cell line growth inhibition [RAS]",
  "settings": "for IC50: curve of first compound; for viability, T/C: stronger effect = lower value",
  "summary_of_the_method": "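Tumour cells grown as complex spheroids with HUVEC endothelial cells and mesenchymal stem cells, treated with RAS pathway inhibitor combinations. Each agent spans half-log steps from near clinical Cmax, or 10 microM where Cmax is unknown.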",
  "data": [
    {"compound": "CCc1c2c(nc3ccc(O)cc13)-c1cc3c(c(=O)n1C2)COC(=O)[C@]3(O)CC", "note": "+ CCn1c(-c2cc(N3CCN(C)CC3)cnc2C(C)OC)c2c3cc(ccc31)-c1csc(n1)CC(NC(=O)C1CC1C)C(=O)N1CCCC(N1)C(=O)OCC(C)(C)C2;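 further: spheroids exposed to agents for 7 days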;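 on viability, T/C: 100% = DMSO vehicle wells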", "values": [
      {"measurement": "IC50", "setting": "second compound 0.000949 µM", "result": 68.2, "unit": "nM"},
      {"measurement": "IC50", "setting": "second compound 0.003 µM", "result": "< 0.949", "unit": "nM"},
      {"measurement": "IC50", "setting": "second compound 0.00949 µM", "result": "< 0.949", "unit": "nM"},
      {"measurement": "IC50", "setting": "second compound 0.03 µM", "result": "< 0.949", "unit": "nM"},
      {"measurement": "IC50", "setting": "second compound 0.0949 µM", "result": "< 0.949", "unit": "nM"},
      {"measurement": "IC50", "setting": "second compound 0.3 µM", "result": "< 0.949", "unit": "nM"},
      {"measurement": "viability, T/C", "setting": "second compound 0.000949 µM, first compound 0.000949 µM", "result": 74.3, "unit": "%"},
      {"measurement": "viability, T/C", "setting": "second compound 0.000949 µM, first compound 0.003 µM", "result": 84.5, "unit": "%"},
      {"measurement": "viability, T/C", "setting": "second compound 0.000949 µM, first compound 0.00949 µM", "result": 54.4, "unit": "%"},
      {"measurement": "viability, T/C", "setting": "second compound 0.000949 µM, first compound 0.03 µM", "result": 62, "unit": "%"},
      {"measurement": "viability, T/C", "setting": "second compound 0.000949 µM, first compound 0.0949 µM", "result": 49.7, "unit": "%"},
      {"measurement": "viability, T/C", "setting": "second compound 0.000949 µM, first compound 0.3 µM", "result": 24.4, "unit": "%"},
      {"measurement": "viability, T/C", "setting": "second compound 0.003 µM, first compound 0.000949 µM", "result": 46.3, "unit": "%"},
      {"measurement": "viability, T/C", "setting": "second compound 0.003 µM, first compound 0.003 µM", "result": 44.4, "unit": "%"},
      {"measurement": "viability, T/C", "setting": "second compound 0.003 µM, first compound 0.00949 µM", "result": 46, "unit": "%"},
      {"measurement": "viability, T/C", "setting": "second compound 0.003 µM, first compound 0.03 µM", "result": 40.1, "unit": "%"},
      {"measurement": "viability, T/C", "setting": "second compound 0.003 µM, first compound 0.0949 µM", "result": 31.9, "unit": "%"},
      {"measurement": "viability, T/C", "setting": "second compound 0.003 µM, first compound 0.3 µM", "result": 20, "unit": "%"},
      {"measurement": "viability, T/C", "setting": "second compound 0.00949 µM, first compound 0.000949 µM", "result": 25.6, "unit": "%"},
      {"measurement": "viability, T/C", "setting": "second compound 0.00949 µM, first compound 0.003 µM", "result": 19, "unit": "%"},
      {"measurement": "viability, T/C", "setting": "second compound 0.00949 µM, first compound 0.00949 µM", "result": 19.7, "unit": "%"},
      {"measurement": "viability, T/C", "setting": "second compound 0.00949 µM, first compound 0.03 µM", "result": 17, "unit": "%"},
      {"measurement": "viability, T/C", "setting": "second compound 0.00949 µM, first compound 0.0949 µM", "result": 17.2, "unit": "%"},
      {"measurement": "viability, T/C", "setting": "second compound 0.00949 µM, first compound 0.3 µM", "result": 11.3, "unit": "%"},
      {"measurement": "viability, T/C", "setting": "second compound 0.03 µM, first compound 0.000949 µM", "result": 13.3, "unit": "%"},
      {"measurement": "viability, T/C", "setting": "second compound 0.03 µM, first compound 0.003 µM", "result": 17.8, "unit": "%"},
      {"measurement": "viability, T/C", "setting": "second compound 0.03 µM, first compound 0.00949 µM", "result": 13.5, "unit": "%"},
      {"measurement": "viability, T/C", "setting": "second compound 0.03 µM, first compound 0.03 µM", "result": 15.7, "unit": "%"},
      {"measurement": "viability, T/C", "setting": "second compound 0.03 µM, first compound 0.0949 µM", "result": 10.4, "unit": "%"},
      {"measurement": "viability, T/C", "setting": "second compound 0.03 µM, first compound 0.3 µM", "result": 9.39, "unit": "%"},
      {"measurement": "viability, T/C", "setting": "second compound 0.0949 µM, first compound 0.000949 µM", "result": 14.1, "unit": "%"},
      {"measurement": "viability, T/C", "setting": "second compound 0.0949 µM, first compound 0.003 µM", "result": 12.5, "unit": "%"},
      {"measurement": "viability, T/C", "setting": "second compound 0.0949 µM, first compound 0.00949 µM", "result": 9.68, "unit": "%"},
      {"measurement": "viability, T/C", "setting": "second compound 0.0949 µM, first compound 0.03 µM", "result": 9.08, "unit": "%"},
      {"measurement": "viability, T/C", "setting": "second compound 0.0949 µM, first compound 0.0949 µM", "result": 12.3, "unit": "%"},
      {"measurement": "viability, T/C", "setting": "second compound 0.0949 µM, first compound 0.3 µM", "result": 9.68, "unit": "%"},
      {"measurement": "viability, T/C", "setting": "second compound 0.3 µM, first compound 0.000949 µM", "result": 11.7, "unit": "%"},
      {"measurement": "viability, T/C", "setting": "second compound 0.3 µM, first compound 0.003 µM", "result": 9.88, "unit": "%"},
      {"measurement": "viability, T/C", "setting": "second compound 0.3 µM, first compound 0.00949 µM", "result": 8.36, "unit": "%"},
      {"measurement": "viability, T/C", "setting": "second compound 0.3 µM, first compound 0.03 µM", "result": 8.45, "unit": "%"},
      {"measurement": "viability, T/C", "setting": "second compound 0.3 µM, first compound 0.0949 µM", "result": 7.32, "unit": "%"},
      {"measurement": "viability, T/C", "setting": "second compound 0.3 µM, first compound 0.3 µM", "result": 4.88, "unit": "%"}
    ]}
  ]
}
